Data taken from ChEMBL document CHEMBL1139353, “Discovery of a new class of potential multifunctional atypical antipsychotic agents targeting dopamine D3 and serotonin 5-HT1A and 5-HT2A receptors: design, synthesis, and effects on behavior” (J Med Chem, 2009).
Activity calls are given as the source filed them. The rule behind the calls is not given here.

Legend:
[1] = biological target: T1, Adrenergic receptor alpha-2 (Rattus norvegicus, UniProt P22086+P19328+P22909); experiment: Displacement of [3H]clonidine from adrenergic alpha2 receptor in rat cerebral cortex by filtration technique; assay type: tissue-based
T1 sequence (P22086 whole entry): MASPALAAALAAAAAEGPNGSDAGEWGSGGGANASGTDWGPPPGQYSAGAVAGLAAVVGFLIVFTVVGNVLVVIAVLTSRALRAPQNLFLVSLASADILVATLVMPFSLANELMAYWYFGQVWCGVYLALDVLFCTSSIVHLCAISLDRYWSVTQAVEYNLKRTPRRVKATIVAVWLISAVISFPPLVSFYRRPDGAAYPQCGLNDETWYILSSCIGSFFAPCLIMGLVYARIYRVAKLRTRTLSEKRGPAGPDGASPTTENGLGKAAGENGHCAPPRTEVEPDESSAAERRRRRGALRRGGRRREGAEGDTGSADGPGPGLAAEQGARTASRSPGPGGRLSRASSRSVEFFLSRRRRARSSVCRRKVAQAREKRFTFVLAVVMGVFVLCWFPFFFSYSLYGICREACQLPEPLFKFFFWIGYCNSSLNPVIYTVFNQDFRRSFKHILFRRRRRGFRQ
T1 sequence (P19328 whole entry): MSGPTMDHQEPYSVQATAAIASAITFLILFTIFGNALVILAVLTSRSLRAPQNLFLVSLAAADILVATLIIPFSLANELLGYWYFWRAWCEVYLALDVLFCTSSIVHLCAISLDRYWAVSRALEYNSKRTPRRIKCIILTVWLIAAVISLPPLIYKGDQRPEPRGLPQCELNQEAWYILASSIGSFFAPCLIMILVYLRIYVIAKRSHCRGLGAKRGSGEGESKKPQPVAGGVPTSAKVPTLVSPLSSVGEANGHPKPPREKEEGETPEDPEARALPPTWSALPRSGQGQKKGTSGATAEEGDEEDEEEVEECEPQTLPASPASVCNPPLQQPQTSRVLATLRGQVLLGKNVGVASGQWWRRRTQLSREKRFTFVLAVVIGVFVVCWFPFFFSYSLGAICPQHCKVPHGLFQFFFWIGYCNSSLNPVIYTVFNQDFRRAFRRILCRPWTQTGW
T1 sequence (P22909 whole entry): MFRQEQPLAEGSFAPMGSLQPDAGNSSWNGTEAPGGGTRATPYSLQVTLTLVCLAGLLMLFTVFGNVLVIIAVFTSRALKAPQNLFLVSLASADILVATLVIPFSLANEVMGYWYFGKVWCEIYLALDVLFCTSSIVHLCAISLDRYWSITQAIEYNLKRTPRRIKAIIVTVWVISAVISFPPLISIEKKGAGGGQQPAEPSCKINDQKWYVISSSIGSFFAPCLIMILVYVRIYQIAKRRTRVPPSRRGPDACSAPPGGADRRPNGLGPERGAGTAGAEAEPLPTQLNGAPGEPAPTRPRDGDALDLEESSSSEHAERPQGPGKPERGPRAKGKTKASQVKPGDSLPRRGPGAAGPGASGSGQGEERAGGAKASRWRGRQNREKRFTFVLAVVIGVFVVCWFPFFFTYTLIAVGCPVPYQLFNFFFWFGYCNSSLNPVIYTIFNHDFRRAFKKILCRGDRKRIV

[2] = biological target: T2, Adrenergic receptor alpha-1 (Rattus norvegicus, UniProt P15823+P23944+P43140); experiment: Displacement of [3H]prazosin from adrenergic alpha1 receptor in rat cerebral cortex by liquid scintillation counting; assay type: tissue-based
T2 sequence (P15823 whole entry): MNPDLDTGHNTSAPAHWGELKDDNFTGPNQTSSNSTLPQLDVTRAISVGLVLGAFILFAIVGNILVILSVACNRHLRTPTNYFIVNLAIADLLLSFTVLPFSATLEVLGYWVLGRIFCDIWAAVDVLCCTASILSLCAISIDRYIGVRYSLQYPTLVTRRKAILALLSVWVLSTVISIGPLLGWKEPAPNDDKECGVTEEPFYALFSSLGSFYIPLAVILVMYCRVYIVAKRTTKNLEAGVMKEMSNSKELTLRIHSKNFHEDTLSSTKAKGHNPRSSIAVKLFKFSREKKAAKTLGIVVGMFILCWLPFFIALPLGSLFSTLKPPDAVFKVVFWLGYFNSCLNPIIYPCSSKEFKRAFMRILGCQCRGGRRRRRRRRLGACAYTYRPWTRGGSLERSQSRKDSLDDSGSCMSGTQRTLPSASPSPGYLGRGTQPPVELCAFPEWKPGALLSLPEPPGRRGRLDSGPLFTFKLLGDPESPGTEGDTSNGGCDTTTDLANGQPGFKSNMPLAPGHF
T2 sequence (P23944 whole entry): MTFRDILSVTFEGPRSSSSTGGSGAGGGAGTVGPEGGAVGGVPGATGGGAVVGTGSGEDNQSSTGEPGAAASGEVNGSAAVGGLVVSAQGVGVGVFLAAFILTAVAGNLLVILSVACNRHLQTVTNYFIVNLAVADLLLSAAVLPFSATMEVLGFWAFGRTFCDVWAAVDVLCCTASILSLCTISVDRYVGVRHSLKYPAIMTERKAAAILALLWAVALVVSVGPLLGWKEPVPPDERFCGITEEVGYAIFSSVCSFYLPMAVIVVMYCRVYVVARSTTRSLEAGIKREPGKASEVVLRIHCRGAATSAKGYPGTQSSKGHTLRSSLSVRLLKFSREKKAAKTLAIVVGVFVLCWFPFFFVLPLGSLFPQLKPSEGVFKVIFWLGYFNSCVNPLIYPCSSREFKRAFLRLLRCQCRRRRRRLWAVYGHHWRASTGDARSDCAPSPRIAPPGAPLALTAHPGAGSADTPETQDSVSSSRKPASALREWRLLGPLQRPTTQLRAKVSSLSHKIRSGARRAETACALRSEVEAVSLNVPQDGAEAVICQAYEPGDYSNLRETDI
T2 sequence (P43140 whole entry): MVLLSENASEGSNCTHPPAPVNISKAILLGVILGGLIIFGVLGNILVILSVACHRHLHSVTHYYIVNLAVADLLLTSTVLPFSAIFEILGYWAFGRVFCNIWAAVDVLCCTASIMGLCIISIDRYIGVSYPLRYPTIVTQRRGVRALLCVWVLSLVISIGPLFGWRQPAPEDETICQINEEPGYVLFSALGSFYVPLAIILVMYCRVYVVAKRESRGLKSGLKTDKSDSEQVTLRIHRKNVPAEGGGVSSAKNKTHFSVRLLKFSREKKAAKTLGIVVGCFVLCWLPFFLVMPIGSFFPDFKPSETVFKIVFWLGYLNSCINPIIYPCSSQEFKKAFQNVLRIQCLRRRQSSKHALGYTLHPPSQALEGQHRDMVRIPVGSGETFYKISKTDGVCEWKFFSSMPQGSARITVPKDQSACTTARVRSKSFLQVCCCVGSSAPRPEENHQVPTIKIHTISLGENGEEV

Mus musculus [3] = conditions: NMRI
Description: Antipsychotic activity in NMRI mouse assessed as reduction in phencyclidine-induced locomotor activity administered 30 mins prior to testing measured for 60 mins

Mus musculus [4] = experiment: Antipsychotic activity in NMRI mouse assessed as reduction in phencyclidine-induced locomotor activity at 3 mg/kg administered 30 mins prior to testing measured for 60 mins; assay type: functional, organism-based; design: dose 3 mg/kg

With Cc1cccc(N2CCN(CCCCNC(=O)c3cc4ccccc4o3)CC2)c1 the Ki [1] was 43 nM, the Ki [2] was 6 nM and the Activity (Mus musculus [3]) was “Dose-dependent effect”. For the same compound, the Activity (Mus musculus [4]) was “Active”.
